Assay in all cases: Ligand binding assay
In test [1] the target is T1, RARγ (Homo sapiens, UniProt P13631).
T1 sequence (P13631 1-454): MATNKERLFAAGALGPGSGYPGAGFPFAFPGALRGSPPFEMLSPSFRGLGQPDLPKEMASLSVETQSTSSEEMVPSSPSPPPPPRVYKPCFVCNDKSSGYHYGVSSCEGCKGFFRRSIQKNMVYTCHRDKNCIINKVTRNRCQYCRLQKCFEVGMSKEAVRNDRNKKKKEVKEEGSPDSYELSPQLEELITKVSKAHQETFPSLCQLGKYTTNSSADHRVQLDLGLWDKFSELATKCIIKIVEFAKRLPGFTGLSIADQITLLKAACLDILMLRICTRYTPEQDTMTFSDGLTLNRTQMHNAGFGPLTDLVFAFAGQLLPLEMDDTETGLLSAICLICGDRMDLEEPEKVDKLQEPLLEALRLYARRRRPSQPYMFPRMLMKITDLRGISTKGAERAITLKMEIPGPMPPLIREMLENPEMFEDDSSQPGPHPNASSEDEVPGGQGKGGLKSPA
The text has this: (§1) Other assays described below, measure the ability of the compounds of the present invention to bind to, and/or activate various retinoid receptor subtypes. When in these assays a compound binds to a given receptor subtype and activates the transcription of a reporter gene through that subtype, then the compound is considered an agonist of that receptor subtype. […] In the below described assays the ability of the compounds to bind to RARα, RARβ, RARγ, RXRα, RXRβ and RXR.tau. receptors, and the ability or inability of the compounds to activate transcription of a reporter gene through these receptor subtypes can be tested.
(§2) A holoreceptor transactivation assay and a ligand binding assay which measure the antagonist/agonist like activity of the compounds of the invention, or their ability to bind to the several retinoid receptor subtypes, respectively, are described in published PCT Application No. WO WO93/11755 (particularly on pages 30-33 and 37-41) published on Jun. 24, 1993, the specification of which is also incorporated herein by reference. A detailed experimental procedure for holoreceptor transactivations has been described by Heyman et aL Cell 68, 397-406, (1992); Allegretto et aL J. Biol. Chem. 268, 26625-26633, and Mangelsdorf et aL The Retinoids: Biology, Chemistry and Medicine, pp 319-349, Raven Press Ltd., New York, which are expressly incorporated herein by reference. The results obtained in this assay are expressed in EC50 numbers, as they are also in the chimeric receptor transactivation assay. The results of ligand binding assay are expressed in Kd numbers. (See Cheng et aL Biochemical Pharmacology Vol. 22 pp 3099-3108, expressly incorporated herein by reference.)

Test [2] has as its target T2, RARβ (Homo sapiens, UniProt P10826).
T2 sequence (P10826 1-448 isoform P10826-2): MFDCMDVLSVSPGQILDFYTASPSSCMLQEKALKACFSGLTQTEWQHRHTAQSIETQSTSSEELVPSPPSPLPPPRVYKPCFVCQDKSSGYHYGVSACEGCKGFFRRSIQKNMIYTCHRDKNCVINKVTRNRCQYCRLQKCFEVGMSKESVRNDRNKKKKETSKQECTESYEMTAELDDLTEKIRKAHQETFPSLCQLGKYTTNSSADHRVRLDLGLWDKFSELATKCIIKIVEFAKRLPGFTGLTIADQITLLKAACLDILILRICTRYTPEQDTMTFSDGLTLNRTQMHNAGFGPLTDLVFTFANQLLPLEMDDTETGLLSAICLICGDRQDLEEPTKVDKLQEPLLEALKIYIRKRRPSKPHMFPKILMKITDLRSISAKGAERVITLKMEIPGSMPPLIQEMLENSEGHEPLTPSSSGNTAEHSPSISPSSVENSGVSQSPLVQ
The conditions noted are these: read-out: Kd RABβ.
Source text: as §1, §2

For test [3], the target named is T3, RARα (Homo sapiens, UniProt P10276).
T3 sequence (P10276 1-462): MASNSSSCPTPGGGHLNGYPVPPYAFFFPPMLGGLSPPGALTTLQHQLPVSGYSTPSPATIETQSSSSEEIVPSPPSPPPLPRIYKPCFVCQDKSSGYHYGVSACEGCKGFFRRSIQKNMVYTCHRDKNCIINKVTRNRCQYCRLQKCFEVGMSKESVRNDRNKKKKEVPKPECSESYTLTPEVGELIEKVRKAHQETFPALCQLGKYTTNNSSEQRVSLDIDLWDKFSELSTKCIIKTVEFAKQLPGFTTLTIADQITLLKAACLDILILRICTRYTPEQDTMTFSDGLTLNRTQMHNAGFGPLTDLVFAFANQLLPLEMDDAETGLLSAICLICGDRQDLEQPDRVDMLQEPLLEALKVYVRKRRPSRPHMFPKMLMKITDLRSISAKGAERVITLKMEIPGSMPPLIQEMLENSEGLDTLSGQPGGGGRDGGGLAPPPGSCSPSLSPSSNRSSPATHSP
Source text: as §1, §2

SMILES strings stand for the structures.

In general, Kd refers to the constant that tells how readily two partners part at equilibrium. In the case of `Cc1ccc(C(=O)c2cc(C#Cc3ccc(C(=O)O)cc3)ccc2O)cc1` [Compound 5, 4-[[4'-hydroxy-3'-(4"-methyl)benzoyl]phenylethynyl]benzoic acid], the Kd is 897 nM in test [1], 98 nM in test [2] and 339 nM in test [3].

For `C=C(c1ccc(C)cc1)c1cc(C#Cc2ccc(C(=O)O)cc2)ccc1O` [Compound 8, 4-[[4'-Hydroxy-3'-(1-p-tolyl)vinyl]phenylethynyl]benzoic acid], the Kd in test [1] was 5220 nM; in test [2] it was 1320 nM; in test [3], 8200 nM.

Consider `C=C(c1ccc(C)cc1)c1cc(C#Cc2ccc(C(=O)O)cc2)ccc1OCOC` [Compound 9, 4-[[4'-methoxymethoxy-3'-(1-p-tolyl)vinyl]phenylethynyl]benzoic acid], for which the Kd worked out at 730 nM in test [1], 152 nM in test [2] and 942 nM in test [3].

On to `C=C(c1ccc(C)cc1)c1cc(C#Cc2ccc(C(=O)O)cc2)ccc1OC` [Compound 12, 4-[[4'-Methoxy-3'-(1-p-tolyl)vinyl]phenylethynyl]benzoic acid], for which the Kd amounted to 394 nM in test [1], 193 nM in test [2] and 1450 nM in test [3].

In the case of `COCOc1ccc(C#Cc2ccc(C(=O)O)cc2)cc1C(=O)c1ccc(C)cc1` [Compound 13], the results for the dissociation constant Kd in test [1], in test [2] and in test [3] were 902 nM, 487 nM and 1190 nM, respectively.

For the compound `C=C(c1ccc(C)cc1)c1cccc(C#Cc2ccc(C(=O)O)cc2)c1` [Compound 20, 4-[[3'-(1-p-Tolyl)vinyl]phenylethynyl]benzoic acid], the figures for the dissociation constant Kd in test [1], in test [2] and in test [3] were > 1000 nM, 224 nM and > 1000 nM, respectively.

With `COc1ccc(C#Cc2ccc(C(=O)O)cc2)cc1C(=O)c1ccc(C)cc1` [Compound 22, 4-[[4'-methoxy-3'-(4"-methyl)benzoyl]phenylethynyl]benzoic acid], the Kd in test [1] amounted to 1500 nM; in test [2], 763 nM; in test [3], 1600 nM.

Take `Cc1ccc(C(=O)c2cc(C#Cc3ccc(C(=O)O)c(F)c3)c(C)cc2O)cc1` [Compound 25, 4-[[4'-Hydroxy-2'-methyl-5'-(4"-methyl)benzoyl]phenylethynyl]-2-fluoro-benzoic acid]: the figures for the Kd in test [1], in test [2] and in test [3] were 1960 nM, 217 nM and 1150 nM, respectively.

`C=C(c1ccc(C)cc1)c1cc(C#Cc2ccc(C(=O)O)cc2)ccc1OC(C)C` [Compound 28, 4-[[4'-Isopropoxy-3'-(1-p-tolyl)vinyl]phenylethynyl]benzoic acid]: the Kd in test [1] was 949 nM; in test [2] it was 538 nM; in test [3], 2090 nM.

With `C=C(c1ccc(C)cc1)c1cc(C#Cc2ccc(C(=O)O)c(F)c2)ccc1OC(C)C` [Compound 29, 4-[[4'-Isopropoxy-3'-(1-p-tolyl)vinyl]phenylethynyl]-2-fluoro-benzoic acid], the Kd in test [1] worked out at 817 nM; in test [2], 233 nM; in test [3], 1160 nM.

As to `C=C(c1cccc(C)c1)c1cc(C#Cc2ccc(C(=O)O)cc2)ccc1OC(C)C` [Compound 31, 4-[[4'-Isopropoxy-3'-(1-m-tolyl)vinyl]phenylethynyl]benzoic acid], the dissociation constant Kd in test [1] was found to be 366 nM; in test [2], 488 nM; in test [3], 3290 nM.

For the origin of these results see patent US6225494A, “Trisubstituted phenyl derivatives having retinoid agonist or inverse agonist type biological activity” (Allergan Sales, Inc., priority 1999, dated 2001).
